Test results from ChEMBL document CHEMBL2146478, “Discovery of potent inhibitors of receptor protein tyrosine phosphatase sigma through the structure-based virtual screening” (Bioorg Med Chem Lett, 2012).

Key:
PTPsigma-(Brain) [1] = molecular target: T1, PTPsigma-(Brain) (Homo sapiens, UniProt Q9UM81); experiment: Inhibition of His-tagged PTPsigma catalytic domain amino acid 1369 to 1948 using DiFMUP as substrate after 20 mins by spectrofluorometric analysis
Target sequence in this assay (Q9UM81 whole entry, the tested form may be a part): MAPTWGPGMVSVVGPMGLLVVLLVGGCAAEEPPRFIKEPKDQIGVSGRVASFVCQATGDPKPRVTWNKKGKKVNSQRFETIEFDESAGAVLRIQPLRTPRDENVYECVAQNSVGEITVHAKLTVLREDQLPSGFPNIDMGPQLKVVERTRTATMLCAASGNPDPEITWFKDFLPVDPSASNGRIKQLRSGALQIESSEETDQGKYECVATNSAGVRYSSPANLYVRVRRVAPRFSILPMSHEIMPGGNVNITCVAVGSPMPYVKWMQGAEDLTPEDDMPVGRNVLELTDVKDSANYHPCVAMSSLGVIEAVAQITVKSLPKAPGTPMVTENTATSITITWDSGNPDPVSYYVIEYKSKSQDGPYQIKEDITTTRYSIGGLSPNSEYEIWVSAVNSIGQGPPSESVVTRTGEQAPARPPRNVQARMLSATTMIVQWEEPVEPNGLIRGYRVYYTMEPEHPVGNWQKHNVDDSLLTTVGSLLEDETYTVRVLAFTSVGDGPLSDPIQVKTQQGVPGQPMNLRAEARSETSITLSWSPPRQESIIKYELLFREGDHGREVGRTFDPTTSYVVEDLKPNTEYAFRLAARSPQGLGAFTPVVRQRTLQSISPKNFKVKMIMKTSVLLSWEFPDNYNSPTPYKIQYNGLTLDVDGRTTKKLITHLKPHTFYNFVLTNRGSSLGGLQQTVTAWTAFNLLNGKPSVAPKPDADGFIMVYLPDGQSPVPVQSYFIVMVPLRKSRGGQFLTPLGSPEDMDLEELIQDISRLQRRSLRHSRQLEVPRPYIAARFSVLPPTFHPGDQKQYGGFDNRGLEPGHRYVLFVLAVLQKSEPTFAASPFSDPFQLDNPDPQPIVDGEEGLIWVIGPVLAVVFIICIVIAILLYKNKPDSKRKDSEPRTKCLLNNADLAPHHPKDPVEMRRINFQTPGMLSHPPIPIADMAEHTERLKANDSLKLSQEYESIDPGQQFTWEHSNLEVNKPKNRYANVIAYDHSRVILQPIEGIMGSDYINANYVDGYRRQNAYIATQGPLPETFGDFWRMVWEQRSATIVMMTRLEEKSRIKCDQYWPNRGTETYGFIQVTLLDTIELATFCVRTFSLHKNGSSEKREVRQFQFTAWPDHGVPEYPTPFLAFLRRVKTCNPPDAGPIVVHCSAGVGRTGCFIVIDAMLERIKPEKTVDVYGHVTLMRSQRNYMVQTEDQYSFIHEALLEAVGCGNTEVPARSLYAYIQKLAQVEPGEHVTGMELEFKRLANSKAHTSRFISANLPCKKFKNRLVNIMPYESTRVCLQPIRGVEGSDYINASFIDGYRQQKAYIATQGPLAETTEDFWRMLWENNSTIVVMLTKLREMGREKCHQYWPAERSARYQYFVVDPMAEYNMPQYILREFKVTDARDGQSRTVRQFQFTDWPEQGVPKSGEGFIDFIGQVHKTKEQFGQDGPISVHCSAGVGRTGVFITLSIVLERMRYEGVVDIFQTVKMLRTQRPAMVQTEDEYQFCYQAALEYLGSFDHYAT

[2] = molecular target: T2, Protein tyrosine phosphatase type IVA 1 (Homo sapiens, UniProt Q93096); experiment: Inhibition of PRL1
T2 sequence (Q93096 whole entry): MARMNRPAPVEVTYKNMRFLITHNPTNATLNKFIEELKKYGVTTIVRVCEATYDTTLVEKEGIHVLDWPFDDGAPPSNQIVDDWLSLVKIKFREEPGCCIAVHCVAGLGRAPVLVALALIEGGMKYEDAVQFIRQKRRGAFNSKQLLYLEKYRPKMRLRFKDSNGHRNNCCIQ

PTPsigma-(Brain) [3] = molecular target: T1, PTPsigma-(Brain); experiment: Inhibition of His-tagged PTPsigma catalytic domain amino acid 1369 to 1948 using DiFMUP as substrate at 2 uM after 20 mins by spectrofluorometric analysis
Target sequence in this assay (Q9UM81 as listed by the source): as the sequence (Q9UM81 whole entry, the tested form may be a part) above

[4] = molecular target: Protein tyrosine phosphatase type IVA 3 (Homo sapiens, UniProt O75365); experiment: Inhibition of PRL3
[5] = molecular target: T3, Dual specificity protein phosphatase 4 (Homo sapiens, UniProt Q13115); experiment: Inhibition of MKP2
T3 sequence (Q13115 whole entry): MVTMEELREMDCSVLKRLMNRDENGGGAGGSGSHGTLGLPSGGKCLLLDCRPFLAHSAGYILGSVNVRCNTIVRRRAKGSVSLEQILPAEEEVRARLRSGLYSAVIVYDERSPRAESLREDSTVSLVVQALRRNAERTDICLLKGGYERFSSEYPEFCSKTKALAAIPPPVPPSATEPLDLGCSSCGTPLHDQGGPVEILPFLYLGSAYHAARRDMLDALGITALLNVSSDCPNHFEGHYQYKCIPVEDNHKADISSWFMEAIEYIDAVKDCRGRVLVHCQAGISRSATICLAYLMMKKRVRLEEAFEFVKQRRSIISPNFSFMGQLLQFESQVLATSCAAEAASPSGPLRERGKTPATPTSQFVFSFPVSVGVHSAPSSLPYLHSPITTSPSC

Chain of Protein tyrosine phosphatase type IVA 3 (O75365 whole entry): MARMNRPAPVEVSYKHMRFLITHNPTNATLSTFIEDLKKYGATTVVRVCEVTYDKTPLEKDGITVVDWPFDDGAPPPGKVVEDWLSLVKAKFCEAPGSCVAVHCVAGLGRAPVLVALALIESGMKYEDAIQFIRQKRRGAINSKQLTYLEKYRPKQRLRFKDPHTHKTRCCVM

| Structure (SMILES) | IC50 (PTPsigma-(Brain) [1]) [µM] | IC50 [2] [µM] | inhibition (PTPsigma-(Brain) [3]) [%] | IC50 [4] [µM] | IC50 [5] [µM] |
| --- | --- | --- | --- | --- | --- |
| CC1=CC2=NC(=O)/C(=C/c3ccc(O)c(O)c3)C(=N)N2O1 | 0.7 | > 100 | > 50 | > 100 | 55.4 |
| N=C1/C(=C\c2ccc(O)c(O)c2)C(=O)N=C2SC(c3ccc(O)cc3)=NN12 | 1.2 | 39.8 | > 50 | 33.2 | > 100 |
| O=C(CSc1nnc(-c2ccco2)c(-c2ccco2)n1)Nc1ccccc1[N+](=O)[O-] | 1.3 | > 100 | > 50 | 57 | > 100 |
| c1ccc2nc(-c3nnc4sc(-c5cnccn5)nn34)ccc2c1 | 0.1 | 21 | > 50 | > 100 | 2.29 |
| O=c1/c(=C/c2ccc(O)c(O)c2)sc2nc3ccccc3n12 | 0.9 | 14 | > 50 | 11 | > 100 |
| O=C1NC(=O)/C(=C\c2cccn2-c2ccc(C(=O)O)cc2)N1 | 0.2 | > 100 | > 50 | > 100 | > 100 |
| O=C1NC(=S)S/C1=C\c1cn(-c2ccccc2)nc1-c1cccc(OCc2ccccc2Cl)c1 | 0.6 | 37.2 | > 50 | 27.6 | 21 |
